Our source for the melting point values is patent US7928098B2, “Therapeutic and/or preventive agents for a sleep disorder” (Kyowa Hakko Kirin Co., Ltd., priority 2005, dated 2011).

By melting point is commonly meant the temperature, or range, at which the solid turns liquid. For the molecule `Nc1nc(-c2ccco2)c(C(=O)C2CCC2)s1` [Compound 329, 2-Amino-4-(2-furyl)thiazol-5-yl cyclobutyl ketone], the melting point was 125 to 160 °C (dec.). Turning to `O=C(Nc1nc(-c2ccco2)c(C(=O)C2CCC2)s1)c1ccncc1` [Compound 330, N-[5-(Cyclobutylcarbonyl)-4-(2-furyl)thiazol-2-yl]pyridine-4-carboxamide], the melting point was 227 to 235 °C (dec.). The molecule `O=C(Nc1nc(-c2ccco2)c(C(=O)C2CCC2)s1)c1ccco1` [Compound 331, N-[5-(Cyclobutylcarbonyl)-4-(2-furyl)thiazol-2-yl]furan-2-carboxamide] yielded a melting point of 188 to 192 °C. Take `N#Cc1ccc(C(=O)Nc2nc(-c3ccco3)c(C(=O)C3CCC3)s2)cc1` [Compound 332, 4-Cyano-N-[5-(cyclobutylcarbonyl)-4-(2-furyl)thiazol-2-yl]benzamide]: the melting point lay within 220 to 225 °C.

`O=C(Nc1nc(-c2ccco2)c(C(=O)C2CCC2)s1)C1CC1` [Compound 333, N-[5-(Cyclobutylcarbonyl)-4-(2-furyl)thiazol-2-yl]cyclopropanecarboxamide] came in with a melting point of 200 to 205 °C. The molecule `O=C(Nc1nc(-c2ccco2)c(C(=O)C2CCCC2)s1)C1CC1` [Compound 339, N-[5-(Cyclopentylcarbonyl)-4-(2-furyl)thiazol-2-yl]cyclopropanecarboxamide] displayed a melting point of 182 to 187 °C.

Molecule `O=C(c1sc(NC(=O)N2CCOCC2)nc1-c1ccco1)C1CCCC1` [Compound 340, N-[5-(Cyclopentylcarbonyl)-4-(2-furyl)thiazol-2-yl]morpholine-4-carboxamide] came in with a melting point of 108 to 110 °C.

In turn, `O=C(Nc1nc(-c2ccco2)c(C(=O)C2CCCCC2)s1)c1ccncc1` [Compound 344, N-[5-(Cyclohexylcarbonyl)-4-(2-furyl)thiazol-2-yl]pyridine-4-carboxamide] had a melting point of 197 to 199 °C.

Regarding `COC1CCC(C(=O)c2sc(NC(=O)c3ccncc3)nc2-c2ccco2)CC1` (stereo not shown) [Compound 347, N-[4-(2-Furyl)-5-(4-methoxycyclohexylcarbonyl)thiazol-2-yl]pyridine-4-carboxamide], the melting point is 180 to 187 °C. For `COC1CCC(C(=O)c2sc(NC(=O)c3ccc(C#N)cc3)nc2-c2ccco2)CC1` (stereo not shown) [Compound 348, 4-Cyano-N-[4-(2-furyl)-5-(4-methoxycyclohexylcarbonyl)-thiazol-2-yl]benzamide] the value was 105 to 109 °C. For `O=C1CCC(C(=O)c2sc(NC(=O)c3ccncc3)nc2-c2ccco2)CC1` [Compound 353, N-[4-(2-Furyl)-5-(4-oxocyclohexylcarbonyl)thiazol-2-yl]-pyridine-4-carboxamide], the melting point fell in the range of 206 to 212 °C. In turn, `Cc1cc(C(=O)Nc2nc(-c3ccco3)c(C(=O)C3CCC(=O)CC3)s2)ccn1` [Compound 354, N-[4-(2-Furyl)-5-(4-oxocyclohexylcarbonyl)thiazol-2-yl]-2-methylpyridine-4-carboxamide] came in with a melting point of 108 to 115 °C. In turn, `O=C1CCC(C(=O)c2sc(NC(=O)c3ccco3)nc2-c2ccco2)CC1` [Compound 355, N-[4-(2-Furyl)-5-(4-oxocyclohexylcarbonyl)thiazol-2-yl]-furan-2-carboxamide] came in with a melting point of 232 to 235 °C. `COc1cccc(C(=O)Nc2nc(-c3ccco3)c(C(=O)C3CCC(=O)CC3)s2)c1` [Compound 356, N-[4-(2-Furyl)-5-(4-oxocyclohexylcarbonyl)thiazol-2-yl]-3-methoxybenzamide] registered a melting point of 176 to 183 °C. `N#Cc1ccc(C(=O)Nc2nc(-c3ccco3)c(C(=O)C3CCC(=O)CC3)s2)cc1` [Compound 357, 4-Cyano-N-[4-(2-furyl)-5-(4-oxocyclohexylcarbonyl)-thiazole-2-yl]benzamide] had a melting point of 211 to 212 °C. As for `O=C(Nc1nc(-c2ccco2)c(C(=O)C2CCOCC2)s1)c1ccccc1` [Compound 362, N-[4-(2-Furyl)-5-(tetrahydropyran-4-ylcarbonyl)thiazol-2-yl]benzamide], the melting point was in the range of 221 to 222 °C.
